Laboratory results published in PubChem BioAssay (NCI).
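48-hour exposure; five concentrations; linearly interpolated endpoints. GI50: concentration for 50% inhibition of growth. TGI is the concentration that stops growth completely.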

Assays:
Assay in all cases: NCI tumour cell line growth inhibition, 48 h
BT-549 breast = test system: BT-549 breast
MDA-MB-231 breast = test system: MDA-MB-231 breast
PC-3 prostate = test system: PC-3 prostate
HS 578T breast = test system: HS 578T breast
T-47D breast = test system: T-47D breast
DU-145 prostate = test system: DU-145 prostate
LXFL 529 NSCLC = test system: LXFL 529 NSCLC
HOP-18 NSCLC = test system: HOP-18 NSCLC
DMS 273 small cell lung = test system: DMS 273 small cell lung
DMS 114 small cell lung = test system: DMS 114 small cell lung
P388 leukemia = test system: P388 leukemia
XF 498 CNS = test system: XF 498 CNS
P388/ADR leukemia = test system: P388/ADR leukemia

Row | SMILES | TGI (BT-549 breast) [µM] | TGI (MDA-MB-231 breast) [µM] | TGI (PC-3 prostate) [µM] | TGI (HS 578T breast) [µM] | TGI (DU-145 prostate) [µM] | TGI (HOP-18 NSCLC) [µM] | TGI (DMS 273 small cell lung) [µM] | TGI (DMS 114 small cell lung) [µM] | TGI (XF 498 CNS) [µM] | further results
1 | Cc1ccc(S(=O)(=O)OCC(=O)O)cc1 | > 100 | > 100 | > 100 | > 100 | > 100 | – | – | – | – | TGI (T-47D breast): > 100 µM
2 | CCCCCC(=O)NC(=S)Nc1nn[nH]n1 | – | > 100 | > 100 | > 100 | > 100 | – | – | – | – | TGI (T-47D breast): > 100 µM
3 | COc1cc(Nc2c3ccccc3nc3ccccc23)ccc1NS(C)(=O)=O | – | – | – | – | – | 26.3 | – | – | – | TGI (LXFL 529 NSCLC): 35 µM
4 | N=C(N)c1ccc(N=Nc2c(O)ccc3c2[nH]c2ccccc23)cc1 | 99.4 | – | > 60.3 | > 100 | > 100 | – | – | – | – | –
5 | COc1ccc(/C(Cl)=C(\C=O)c2ccc(F)cc2)cc1OC | – | – | – | – | – | 44.2 | 97.3 | 46.2 | – | TGI (LXFL 529 NSCLC): 76.7 µM
6 | C[C@]12CCc3nc(Nc4ccccc4)sc3C1=CC[C@@H]1[C@@H]2CC[C@]2(C)/C(=N/NC(N)=S)CC[C@@H]12 | > 100 | > 100 | > 100 | > 100 | > 100 | – | – | – | – | GI50 (BT-549 breast): 3.26 µM; GI50 (MDA-MB-231 breast): 4.43 µM; GI50 (PC-3 prostate): 2.95 µM; GI50 (HS 578T breast): > 100 µM; GI50 (T-47D breast): 2.85 µM; TGI (T-47D breast): > 100 µM; GI50 (DU-145 prostate): 2.96 µM
7 | O=C(NC(Cc1ccc(I)cc1)C(=O)O)c1ccc(Br)cc1 (centres undefined) | – | – | – | – | – | > 100 | > 100 | > 100 | > 100 | TGI (P388 leukemia): > 100 µM; TGI (P388/ADR leukemia): > 31.6 µM
8 | Nc1ccc(N=Nc2ccccc2)cc1 | > 100 | 88 | > 100 | > 100 | – | – | – | – | – | –
9 | COc1ccc(O)cc1 | – | – | – | – | – | – | – | > 100 | > 100 | TGI (LXFL 529 NSCLC): > 100 µM
10 | Nc1ccc2[nH]c3c(-c4ccccc4)nccc3c2c1 | – | – | – | – | – | > 100 | > 100 | > 100 | > 100 | TGI (P388 leukemia): 46.5 µM; TGI (P388/ADR leukemia): > 100 µM
11 | Cc1[nH]c(=O)[nH]c(=O)c1/C=C/C(=O)O | – | – | – | – | – | > 1000 | > 1000 | > 1000 | > 1000 | GI50 (P388 leukemia): > 1000 µM; TGI (P388 leukemia): > 1000 µM; TGI (P388/ADR leukemia): > 1000 µM
